The numbers were not newly measured in PubChem BioAssay AID1259409 (Chemical Carcinogenesis Research Information System (CCRIS), 2018), which cites them from elsewhere.

Values joined by “and” are separate entries in the source; they are usually repeats but may differ in a detail not shown here. Equal entries are not always repeated.

The subject of this data set is rodent chemically induced tumor inhibition, incidence and multiplicity. Nature of the data set: CCRIS tumor inhibitor studies.
Setting [1] is: Carcinogen: 7,12-DIMETHYLBENZ[A]ANTHRACENE, 57-97-6, Dose [Inhibitor]: 0, 1% IN DIET FOR 3 WK BEGINNING 2 WK PRIOR TO CARCINOGEN DOSE (STUDY DURATION: 20 WK), Route [Inhibitor]: ORAL, Species: RAT, Strain/Sex: WISTAR/FEMALE, Target Tissue: Type of Lesion: MAMMARY GLAND: CARCINOMA, Dose [Carcinogen]: 50 MG/KG IN SESAME OIL ONCE, Promoter: NONE USED.

Turning to `C=C(C)C1CC=C(C)C(O)C1` (stereo not given), the “tumour outcome (control, treated, inhibition, significance)” value under setting [1] is 98%, 92%, 6%, not significant.

`C=C(C)C1C=CC(C)(O)CC1` (stereo not given): the “tumour outcome (control, treated, inhibition, significance)” value (Carcinogen: BENZO[A]PYRENE, 50-32-8, Dose [Inhibitor]: 0, 20 MG 3/WK FOR 4 WK ON DAYS OTHER THAN THE CARCINOGEN TREATMENT (STUDY DURATION: 20 WK), Route [Inhibitor]: GAVAGE, Species: MOUSE, Strain/Sex: STRAIN-A/FEMALE, Target Tissue: Type of Lesion: FORESTOMACH: TUMOR, Dose [Carcinogen]: 1 MG IN 0.2 ML COTTONSEED OIL 2/WK FOR 4 WK, Promoter: NONE USED) is recorded as 13/19 (68%), 7/14 (50%), 26%, not significant.

Consider `Cl`, for which the “tumour outcome (control, treated, inhibition, significance)” value (Carcinogen: 1,2-DIMETHYLHYDRAZINE, 540-73-8, Dose [Inhibitor]: 0, 5 G/L IN DRINKING WATER FOR DURATION OF STUDY BEGINNING 7 D PRIOR TO CARCINOGEN TREATMENT (STUDY DURATION: 8 MO), Route [Inhibitor]: ORAL, Species: RAT, Strain/Sex: BD6/MALE, Target Tissue: Type of Lesion: INTESTINE: TUMOR, Dose [Carcinogen]: 20 MG/KG BW 1/WK FOR 20 WK, Promoter: NONE USED) is on record as 100%, 100%, 0%, not significant; the “tumour outcome (control, treated, inhibition, significance)” value (Carcinogen: BRACKEN FERN, Dose [Inhibitor]: 20 MG/G DIET/D FOR 12 MO SIMULTANEOUS WITH CARCINOGEN (STUDY DURATION: 12 MO), Route [Inhibitor]: ORAL, Species: RAT, Strain/Sex: ALBINO/?, Target Tissue: Type of Lesion: INTESTINE: TUMOR, Dose [Carcinogen]: 0.33 G IN DIET/D FOR 12 MO, Promoter: NONE USED) was 30/30 (100%), 16/23 (70%), 30%, p<0.01; the “tumour outcome (control, treated, inhibition, significance)” value (Carcinogen: BRACKEN FERN, Dose [Inhibitor]: 20 MG/G DIET/D FOR 12 MO SIMULTANEOUS WITH CARCINOGEN (STUDY DURATION: 12 MO), Route [Inhibitor]: ORAL, Species: RAT, Strain/Sex: ALBINO, Target Tissue: Type of Lesion: URINARY BLADDER: TUMOR, Dose [Carcinogen]: 0.33 G IN DIET/D FOR 12 MO, Promoter: NONE USED) is given as 22/30 (73%), 4/23 (17%), 77%, p<0.001; the “tumour outcome (control, treated, inhibition, significance)” value (Carcinogen: N-METHYL-N'-NITRO-N-NITROSOGUANIDINE, 70-25-7, Dose [Inhibitor]: 0, 1% IN DRINKING WATER BEGINNING 1 WK POST CARCINOGEN TREATMENT AND CONTINUING FOR STUDY DURATION (STUDY DURATION: 52 W, Route [Inhibitor]: ORAL, Species: RAT, Strain/Sex: SHR/MALE, Target Tissue: Type of Lesion: STOMACH: ADENOCARCINOMA, Dose [Carcinogen]: 40 ML OF A 25 MG/ML SOLUTION 1/2 D IN DRINKING WATER FOR 25 WK) is 65%, 20%, 69%, p<0.02; the “tumour outcome (control, treated, inhibition, significance)” value (Carcinogen: N-METHYL-N'-NITRO-N-NITROSOGUANIDINE, 70-25-7, Dose [Inhibitor]: 0, 1% IN DRINKING WATER BEGINNING 1 WK POST CARCINOGEN TREATMENT AND CONTINUING FOR STUDY DURATION (STUDY DURATION: 52 W, Route [Inhibitor]: ORAL, Species: RAT, Strain/Sex: WKR/MALE, Target Tissue: Type of Lesion: STOMACH: ADENOCARCINOMA, Dose [Carcinogen]: 40 ML OF A 25 MG/ML SOLUTION 1/2 D IN DRINKING WATER FOR 25 WK) is on record as 25%, 20%, 20%, not calculated; the “tumour outcome (control, treated, inhibition, significance)” value (Carcinogen: N-METHYL-N'-NITRO-N-NITROSOGUANIDINE, 70-25-7, Dose [Inhibitor]: 0, 1% IN DRINKING WATER FOR 27 WK BEGINNING POST CARCINOGEN DOSE (STUDY DURATION: 52 WK), Route [Inhibitor]: ORAL, Species: RAT, Strain/Sex: WISTAR/MALE, Target Tissue: Type of Lesion: STOMACH: TUMOR, Dose [Carcinogen]: 25 UG/ML IN DRINKING WATER FOR 25 WK, Promoter: DEOXYCORTICOSTERONE ACETATE, 56-47-3) is on record as 11/20 (55%), 3/18 (17%), 69%, p<0.05. The “tumour outcome (control, treated, inhibition, significance)” value by setting is: (Carcinogen: N-METHYL-N'-NITRO-N-NITROSOGUANIDINE, 70-25-7, Dose [Inhibitor]: 0, 4% IN DIET FOR 25 WK BEGINNING 1 WK POST CARCINOGEN TREATMENT (STUDY DURATION: 52 WK), Route [Inhibitor]: ORAL, Species: RAT, Strain/Sex: WISTAR/MALE, Target Tissue: Type of Lesion: STOMACH: ADENOCARCINOMA, Dose [Carcinogen]: 25 UG/ML IN DRINKING WATER FOR 25 WK, Promoter: SODIUM CHLORIDE, 7647-14-5) 17/19 (89%), 10/18 (56%), 37%, not significant; (Carcinogen: N-METHYL-N'-NITRO-N-NITROSOGUANIDINE, 70-25-7, Dose [Inhibitor]: 0, 8% IN DIET FOR 25 WK BEGINNING 1 WK POST CARCINOGEN TREATMENT (STUDY DURATION: 52 WK), Route [Inhibitor]: ORAL, Species: RAT, Strain/Sex: WISTAR/MALE, Target Tissue: Type of Lesion: STOMACH: ADENOCARCINOMA, Dose [Carcinogen]: 25 UG/ML IN DRINKING WATER FOR 25 WK, Promoter: SODIUM CHLORIDE, 7647-14-5) 17/19 (89%), 5/19 (26%), 71%, p<0.01.

For `CC1=CCC(C(C)(C)O)CC1O` (stereo not given), under setting [1], the “tumour outcome (control, treated, inhibition, significance)” value is 80%, 52%, 35%, not calculated and 98%, 84%, 14%, not significant.

In the case of `C[C@H]1CCCC(=O)CCC/C=C/c2cc(O)cc(O)c2C(=O)O1`, the “tumour outcome (control, treated, inhibition, significance)” value (Carcinogen: 7,12-DIMETHYLBENZ[A]ANTHRACENE [57-97-6], Dose [Inhibitor]: 20 UG/L IN 0.05 ML PEANUT OIL 2X/WK FOR 2 WK BEGINNING AT 7 D OF AGE (STUDY DURATION: 24 WK), Route [Inhibitor]: SUBCUTANEOUS, Species: RAT, Strain/Sex: SPRAGUE-DAWLEY/FEMALE, Target Tissue: Type of Lesion: MAMMARY GLAND: TUMOR, Dose [Carcinogen]: 10 MG IN 1 ML PEANUT OIL ONCE AT 45 D OF AGE (STUDY DURATION: 24 WK), Promoter: NONE) was 17/30 (57%), 9/30 (30%), 47%, p<0.018.

On to `CC1=C(O)C(=O)C(C)O1` (stereo not given), for which the “tumour outcome (control, treated, inhibition, significance)” value is, setting by setting: (Carcinogen: BENZO[A]PYRENE, 50-32-8, Dose [Inhibitor]: 0, 25 PPM IN DIET FOR 17 WK BEGINNING 1 WK POST CARCINOGEN TREATMENT (STUDY DURATION: 21 WK), Route [Inhibitor]: ORAL, Species: MOUSE, Strain/Sex: ICR/FEMALE, Target Tissue: Type of Lesion: FORESTOMACH: TUMOR, Dose [Carcinogen]: 1.5 MG IN 0.2 ML CORN OIL 1/WK FOR 4 WK, Promoter: NONE USED) 90%, 74%, 18%, not significant; (Carcinogen: BENZO[A]PYRENE, 50-32-8, Dose [Inhibitor]: 0, 50 PPM IN DIET FOR 17 WK BEGINNING 1 WK POST CARCINOGEN TREATMENT (STUDY DURATION: 21 WK), Route [Inhibitor]: ORAL, Species: MOUSE, Strain/Sex: ICR/FEMALE, Target Tissue: Type of Lesion: FORESTOMACH: TUMOR, Dose [Carcinogen]: 1.5 MG IN 0.2 ML CORN OIL 1/WK FOR 4 WK, Promoter: NONE USED) 90%, 72%, 20%, p<0.1; (Carcinogen: BENZO[A]PYRENE, 50-32-8, Dose [Inhibitor]: 0, 75 PPM IN DIET FOR 17 WK BEGINNING 1 WK POST CARCINOGEN TREATMENT (STUDY DURATION: 21 WK), Route [Inhibitor]: ORAL, Species: MOUSE, Strain/Sex: ICR/FEMALE, Target Tissue: Type of Lesion: FORESTOMACH: TUMOR, Dose [Carcinogen]: 1.5 MG IN 0.2 ML CORN OIL 1/WK FOR 4 WK, Promoter: NONE USED) 90%, 62%, 31%, p<0.05.
